Source: article PMC7562719, “Discovery of a CNS penetrant small molecule SMN2 splicing modulator with improved tolerability for spinal muscular atrophy” (Scientific Reports, 2020)
Like-named read-outs stand apart in the source and are kept apart here.

Experiments:
SMN2 splicing = test: qPCR of SMN transcripts in GM03813 cells exposed to TEC-1 and nusinersen; type: cell-based, human; conditions: GM03813, 24 h
Method: Transient transfection of GM03813 fibroblasts with nusinersen (final concentration 100 nM) was performed using Lipofectamine 2000. Cells were seeded 6 h prior to transfection at a density of 5 × 10^3 cells/well in 96-well plate. Transfection was performed according to manufacturer’s instructions. Cells were co-incubated either 0.1% DMSO or with TEC-1 at the concentration of 0.03, 0.1, 0.3, 1, and 3 µM for 24 h.

[1] = pharmacokinetic study in adult wild type FVB mice, oral; type: in vivo; conditions: for Kp / Cmax / MRT / Tmax: male, mouse
Method: TEC-1 was administered at doses of 2, 6, and 20 mg/kg for oral (suspended in 0.5% methyl cellulose aqueous solution) to male FVB mice (aged 8 weeks, 3 mice per a time point). After 0.5–120 h administration, blood and brain samples were collected. Blood samples with heparin were centrifuged for plasma collection. Brain samples were homogenized in saline 20% (w/v). The samples were deproteinized with acetonitrile and following by centrifugation, and the supernatants were analyzed by LC/MS/MS to obtain TEC-1 concentrations of the plasma and brain.

[2] = target: T1, human acetylcholinesterase (Homo sapiens, UniProt P22303); test: Eurofins selectivity panel: acetylcholinesterase; type: biochemical
T1 construct: purchased Eurofins Inc

SMN protein = SMN protein in iPSC-derived motor neurons (HTRF, western blot); type: cell-based, human; conditions: iPSC-derived motor neurons (GM24468), 3 days
Method: GM03813 fibroblasts and GM24468-derived MNs were seeded at 1.5 × 10^4 and 4 × 10^4 cells/well in 96-well plates and were treated with TEC-1 or SMN-C3 for 72 h at the concentration of 0.01, 0.03, 0.1, 0.3, 1, or 3 µM. After 72 h exposure of compound, GM24468 derived MNs and GM03813 fibroblasts were washed once with D-PBS (-), lysed with RIPA buffer (Wako) containing cOmplete (Sigma-Aldrich) and PhosSTOP (Sigma-Aldrich). The lysates were spun at 15,000 rpm for 15 min at 4 °C, and the supernatants were collected. The protein concentration was quantified with BCA kit (Wako). The lysates, adjusted to have the same protein amount, were mixed with NuPAGE LDS sample buffer containing DTT and heated at 95 °C for 5 min. Except for HTT detection, each sample (2 µg total protein/lane) was loaded Perfect NT Gel 7.5–15% gel (DRC, Japan) and run at 150 V for 60–70 min with Tris/glycine/SDS running buffer (BIO-RAD, USA). […] After washing with TBS-T four times, chemiluminescence signals were detected by Immunostar Zeta (Wako) and LAS-4000 (GE healthcare). […]
SMN protein concentration of the cells were quantified using an SMN HTRF kit[15] […] The fluorescence emission was read at two different wavelengths (665 nm and 620 nm or 615 nm) using an Envision plate reader (PerkinElmer, USA) excited by 320 nm. The concentration of protein in each cell lysate were measured by BCA kit (BIO-RAD) and used for normalization.

[3] = brain, 2 mg/kg oral single, adult FVB mice
[4] = brain, 6 mg/kg oral single, adult FVB mice
[5] = brain, 20 mg/kg oral single, adult FVB mice
[6] = plasma, 2 mg/kg oral single, adult FVB mice
[7] = plasma, 6 mg/kg oral single, adult FVB mice
[8] = plasma, 20 mg/kg oral single, adult FVB mice

T1 sequence (P22303 32-614): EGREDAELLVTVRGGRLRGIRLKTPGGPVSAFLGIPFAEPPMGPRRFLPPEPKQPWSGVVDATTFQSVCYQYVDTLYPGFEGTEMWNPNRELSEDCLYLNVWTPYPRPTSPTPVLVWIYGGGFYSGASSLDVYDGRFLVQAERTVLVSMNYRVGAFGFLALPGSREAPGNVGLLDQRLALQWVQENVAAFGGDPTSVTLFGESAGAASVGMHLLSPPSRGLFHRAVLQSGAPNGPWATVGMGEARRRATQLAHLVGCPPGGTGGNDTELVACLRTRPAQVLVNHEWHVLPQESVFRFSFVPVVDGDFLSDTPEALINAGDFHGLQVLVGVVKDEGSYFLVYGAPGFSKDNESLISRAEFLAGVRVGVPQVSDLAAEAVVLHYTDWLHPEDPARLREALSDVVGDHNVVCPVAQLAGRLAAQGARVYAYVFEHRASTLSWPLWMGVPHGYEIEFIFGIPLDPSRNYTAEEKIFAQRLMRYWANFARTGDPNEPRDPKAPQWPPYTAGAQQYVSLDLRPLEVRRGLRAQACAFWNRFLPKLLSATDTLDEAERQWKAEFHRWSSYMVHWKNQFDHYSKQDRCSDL

For `Cc1cn2nc(-c3nc4ccc(N5CCN(C)CC5)cc4c(=O)[nH]3)cc2c(C)n1` [TEC-1, 2-(4,6-dimethylpyrazolo[1,5-a]pyrazin-2-yl)-6-(4-methylpiperazin-1-yl)quinazolin-4(3H)-one], the “effect on the activity of nusinersen” value (SMN2 splicing; TEC-1 at 1 and 3 µM with nusinersen 100 nM) was “significantly enhanced the effects of nusinersen”, the “effect on the activity of nusinersen” value (SMN2 splicing; low concentrations of TEC-1 with nusinersen 100 nM) was “did not inhibit the effects of nusinersen” and the “AUC0–24 h” value [1, 3] was 2234.1 ng･h/g. The “AUC0–120 h” value [1, 3] was 2433.7 ng･h/g, the “AUC0–24 h” value [1, 4] was 3956.7 ng･h/g and the “AUC0–120 h” value [1, 4] was 8011.1 ng･h/g. The “AUC0–24 h” value [1, 5] was 6322.1 ng･h/g, the “AUC0–120 h” value [1, 5] was 29429.3 ng･h/g and the Kp ([1]; brain and plasma, other: intraperitoneal (juvenile) and oral (adult), juvenile (intraperitoneal) and adult (oral) FVB mice, read-out: Kp values (ratio of the compound in the brain and plasma)) was over 1. The Kp ([1]; brain/plasma, 2 mg/kg oral single, adult FVB mice, read-out: Kp (AUC0–120h ratio)) was 1.2, the Kp ([1]; brain/plasma, 6 mg/kg oral single, adult FVB mice, read-out: Kp (AUC0–120h ratio)) was 1.2 and the Kp ([1]; brain/plasma, 20 mg/kg oral single, adult FVB mice, read-out: Kp (AUC0–120h ratio)) was 1.8. It also gave a Cmax [1, 3] of 168 ng/g, an MRT [1, 3] of 10.7 h and a Tmax [1, 3] of 1 h. The Cmax [1, 4] was 195 ng/g, the MRT [1, 4] was 29.5 h and the Tmax [1, 4] was 7 h. For the same compound, the Cmax [1, 5] was 360 ng/g, the MRT [1, 5] was 54.6 h and the Tmax [1, 5] was 32 h. For the same compound, the MRT [1, 6] was 10.7 h, the Tmax [1, 6] was 3 h and the Cmax ([1]; plasma, 2 mg/kg oral single, adult FVB mice, mean, n = 3) was 136 ng/mL. For the same compound, the Cmax [1, 7] was 157 ng/mL, the MRT [1, 7] was 33.1 h and the Tmax [1, 7] was 3 h. The Cmax [1, 8] was 222 ng/mL, the MRT [1, 8] was 48.5 h and the Tmax [1, 8] was 16 h. The “AUC0–24 h” value [1, 6] was 1906.7 ng･h/mL, the “AUC0–120 h” value [1, 6] was 2095.9 ng･h/mL and the “AUC0–24 h” value [1, 7] was 3100.3 ng･h/mL. For the same compound, the “AUC0–120 h” value [1, 7] was 6647.9 ng･h/mL, the “AUC0–24 h” value [1, 8] was 4950.5 ng･h/mL and the “AUC0–120 h” value [1, 8] was 16350.5 ng･h/mL. The IC50 [2] was 1190 nM and the “concentration that increased SMA protein” value (SMN protein) was 100 nM.
